How the values were obtained:
[1] = test system: Human epithelium cancer cells A431; assay: Evaluation of cell toxicity of fluorescent labeling agent (cell counting kit-8, absorbance at 450 nm); type: cell-based
Protocol: <Evaluation of Cell Toxicity of Fluorescent Labeling Agent>
(§1) Human epithelium cancer cells A431 were seeded in a 96-well plate (1×10^4 cells/well). Next, the A431 were cultured for 24 hours using an RPMI 1640 medium to which 10% fetal bovine serum (FBS) and 1% penicillin-streptomycin had been added in an incubator (37° C., 5% CO2-containing Air, humidified environment). As the RPMI 1640 medium, an RPMI-164-Medium manufactured by Sigma-Aldrich Inc. was used.
After cultivation, the medium was removed, the fluorescent labeling agents prepared in Examples 83 to 123 and Comparative Examples 25 to 37 and an RPMI 1640 medium containing 1% dimethyl sulfoxide (DMSO medium solution) were added thereto. These were left to stand in the incubator for one hour and then washed in the RPMI 1640 medium. 10 μL of a cell counting kit-8 (manufactured by Dojindo Laboratories.) was added to each well and left to stand in the incubator (37° C., 5% CO2-containing Air, humidified environment) for one hour. Next, the absorbance at 450 nm was measured using a plate reader (SPARK, manufactured by Tecan Trading AG).
The relative value of the absorbance of each fluorescent labeling agent when the absorbance of the well to which the DMSO medium solution had been added was regarded as one was calculated and evaluated based on the following standards. […] At the time of calculating the relative value of the absorbance of the fluorescent labeling agent, a value obtained by subtracting the absorbance before the addition of the cell counting kit-8 (manufactured by Dojindo Laboratories.) from the measured absorbance was used.
• P (Pass): 0.8 or more • F (Failure): Less than 0.8 <Evaluation of Fluorescence Intensity of Fluorescent Labeling Agent>

phospholipids = assay: Evaluation of property of fluorescent dye being accumulated in phospholipids (labeling agent intensity / dye solution intensity); type: cell-based, Human; settings: A431 cells, one hour; relative value, comparative compound 12 regarded as one; fluorescent wavelength range as in Table 22 (780-800 nm, 630-650 nm in last line)
Protocol: <Evaluation of Property of Fluorescent Dye being Accumulated in Phospholipids>
The property of each dye being accumulated in phospholipids was calculated from the fluorescence intensity integral value obtained from the fluorescent spectrum of the dye solution and the fluorescence intensity obtained from the fluorescence intensity of the fluorescent labeling agent using an expression (1). The relative value of the property of each fluorescent labeling agent being accumulated in phospholipids when the property of the comparative compound 12 being accumulated in phospholipids was regarded as one was calculated and evaluated based on the following standards. In a case where the relative value is evaluated as 3 or more, it can be said that each fluorescent dye has a favorable property of being accumulated in phospholipids.
• 4: The property of being accumulated in phospholipids is 4 or more. • 3: The property of being accumulated in phospholipids is 2 or more and less than 4. • 2: The property of being accumulated in phospholipids is 1 or more and less than 2. • 1: The property of being accumulated in phospholipids is less than 1. Property of being accumulated in phospholipids=fluorescence intensity of fluorescent labeling agent/fluorescence intensity of dye solution (1)

[2] = test system: Human epithelium cancer cells A431; assay: Evaluation of visibility of cell (fluorescent microscope); type: cell-based; design: key: P (Pass): Clear; F (Failure): Unclear
Protocol: <Evaluation of Visibility of Cell>
as §1, with “The” for “Next, the”, “environment).” for “environment). As the RPMI 1640 medium, an RPMI-164-Medium manufactured by Sigma-Aldrich Inc. was used.”
After cultivation, the medium was removed, and the fluorescent labeling agents prepared in Examples 127 to 189 and Comparative Examples 25 to 37 were added thereto and left to stand in the incubator for one hour. Next, these were washed in the RPMI 1640 medium. The dark field images and fluorescent images of the cells were observed using a fluorescent microscope (manufactured by Keyence Corporation, BZ-X800) equipped with an excitation filter for an appropriate wavelength and a fluorescent filter and evaluated based on the following standards.
• P (Pass): Clear • F (Failure): Unclear
The evaluation results of the visibility of the cells labeled with the fluorescent labeling agents 1, 15, 19, 24, 25, 68, and 75 are sequentially shown in FIGS. 2 to 8 (magnification: 10 times, optical uptake time: 1 second).
The evaluation results of the visibility of the cells labeled with the fluorescent labeling agents 42 and 53 are sequentially shown in FIGS. 9 to 10 (magnification: 40 times, optical uptake time: 1 second).
From what has been described above, it has been clarified that the fluorescent labeling agent according to the embodiment of the present invention has excellent characteristics as a fluorescent labeling agent.

[3] = labeling agent left one hour, absorbance relative to DMSO medium solution regarded as one
[4] = A431 cells, labeling agent left one hour
[5] = cell counting kit-8, absorbance at 450 nm, pass/fail grade
[6] = A431 cells labeled for one hour, Clear/Unclear

SMILES	Cell toxicity [1, 3]	Property of being accumulated in phospholipids (phospholipids)	Cell visibility [2, 4]	Cell toxicity [1, 5]	Cell visibility [2, 6]
C[Si](C)(CCCN)[O][Al]1[n]2c3c4cc(-c5ccccc5)ccc4c2N=C2N=C(N=c4c5cc(-c6ccccc6)ccc5c([n]41)=NC1=NC(=N3)c3ccc(-c4ccccc4)cc31)c1ccc(-c3ccccc3)cc12 [Fluorescent dye 2]	P (P (Pass): 0.8 or more)	4 (4: The property of being accumulated in phospholipids is 4 or more.)	P		
C[Si](C)(CCCN)[O][Al]1[n]2c3c4cc(C5CCCCC5)c(C5CCCCC5)cc4c2N=C2N=C(N=c4c5cc(C6CCCCC6)c(C6CCCCC6)cc5c([n]41)=NC1=NC(=N3)c3cc(C4CCCCC4)c(C4CCCCC4)cc31)c1cc(C3CCCCC3)c(C3CCCCC3)cc12 [Fluorescent dye 3]	P (P (Pass): 0.8 or more)				
C[Si](C)(CCCN)[O][Al]1[n]2c3c4cccc(Sc5ccccc5)c4c2N=C2N=C(N=c4c5cccc(Sc6ccccc6)c5c([n]41)=NC1=NC(=N3)c3c(Sc4ccccc4)cccc31)c1c(Sc3ccccc3)cccc12 [Fluorescent dye 4]	P (P (Pass): 0.8 or more)				
CCOc1cccc2c1C1=NC2=Nc2c3c(OCC)cccc3c3n2[Si](O)(O[Si](C)(C)CCCN)n2c(c4cccc(OCC)c4c2=NC2=NC(=N3)c3c(OCC)cccc32)=N1 (centres unmarked) [Fluorescent dye 5]	P (P (Pass): 0.8 or more)				
CCOc1cccc2c1C1=NC2=Nc2c3c(OCC)cccc3c3[n]2[Al]([O]S(=O)(=O)c2ccc(CCN)cc2)[n]2c(c4cccc(OCC)c4c2=NC2=NC(=N3)c3c(OCC)cccc32)=N1 [Fluorescent dye 6]	P (P (Pass): 0.8 or more)				
NCCc1ccc(S(=O)(=O)[O][Al]2[n]3c4c5cc(C(F)(F)F)ccc5c3N=C3N=C(N=c5c6cc(C(F)(F)F)ccc6c([n]52)=NC2=NC(=N4)c4ccc(C(F)(F)F)cc42)c2ccc(C(F)(F)F)cc23)cc1 [Fluorescent dye 7]	P (P (Pass): 0.8 or more)				
CCCCCCCCCCCCCCCCCCc1ccc2c(c1)C1=NC2=Nc2c3cc(CCCCCCCCCCCCCCCCCC)ccc3c3[n]2[Al]([O]S(=O)(=O)c2ccc(CCN)cc2)[n]2c(c4ccc(CCCCCCCCCCCCCCCCCC)cc4c2=NC2=NC(=N3)c3cc(CCCCCCCCCCCCCCCCCC)ccc32)=N1 [Fluorescent dye 8]	P (P (Pass): 0.8 or more)				
CC(C)(C)c1ccc2c(c1)C1=NC2=Nc2c3cc(C(C)(C)C)ccc3c3[n]2[Al]([O]S(=O)(=O)c2ccc(CCN)cc2)[n]2c(c4ccc(C(C)(C)C)cc4c2=NC2=NC(=N3)c3cc(C(C)(C)C)ccc32)=N1 [Fluorescent dye 9]	P (P (Pass): 0.8 or more)				
CCOc1cccc2c1C1=NC2=Nc2c3c(OCC)cccc3c3[n]2[Al]([O]C(=O)CCCN)[n]2c(c4cccc(OCC)c4c2=NC2=NC(=N3)c3c(OCC)cccc32)=N1 [Fluorescent dye 10]	P (P (Pass): 0.8 or more)				
CCOc1cccc2c1C1=NC2=Nc2c3c(OCC)cccc3c3[n]2[Al]([O]C(=O)c2ccc(C(=O)O)cc2)[n]2c(c4cccc(OCC)c4c2=NC2=NC(=N3)c3c(OCC)cccc32)=N1 [Fluorescent dye 11]	P (P (Pass): 0.8 or more)				
CC(C)C(Oc1cccc2c1C1=NC2=Nc2c3c(OC(C(C)C)C(C)C)cccc3c3[n]2[Al]([O]S(=O)(=O)CCCOCCC(=O)O)[n]2c(c4cccc(OC(C(C)C)C(C)C)c4c2=NC2=NC(=N3)c3c(OC(C(C)C)C(C)C)cccc32)=N1)C(C)C [Fluorescent dye 12]	P (P (Pass): 0.8 or more)				
CCOc1cccc2c1C1=NC2=Nc2c3c(OCC)cccc3c3[n]2[Al]([O]C(=O)CCN(C)C)[n]2c(c4cccc(OCC)c4c2=NC2=NC(=N3)c3c(OCC)cccc32)=N1 [Fluorescent dye 14]	P (P (Pass): 0.8 or more)	4 (4: The property of being accumulated in phospholipids is 4 or more.)	P		
CCOc1cccc2c1C1=NC2=Nc2c3c(OCC)cccc3c3n2[Si](O)(OP(=O)(CCC(=O)O)c2ccccc2)n2c(c4cccc(OCC)c4c2=NC2=NC(=N3)c3c(OCC)cccc32)=N1 (centres unmarked) [Fluorescent dye 16]	P (P (Pass): 0.8 or more)	4 (4: The property of being accumulated in phospholipids is 4 or more.)	P		
CCOc1cccc2c1C1=NC2=Nc2c3c(OCC)cccc3c3[n]2[Al]([O]P(=O)(O)CCC(=O)O)[n]2c(c4cccc(OCC)c4c2=NC2=NC(=N3)c3c(OCC)cccc32)=N1 [Fluorescent dye 17]	P (P (Pass): 0.8 or more)	4 (4: The property of being accumulated in phospholipids is 4 or more.)	P		
CCOc1cccc2c1C1=Nc3c4cccc(OCC)c4c4[n]3[Mg][n]3c(c5cccc(OCC)c5c3=NC2=N1)=NC1=NC(=N4)c2ccc(OS(=O)(=O)c3ccc(CCCN)cc3)cc21 [Fluorescent dye 36]				P (P (Pass): 0.8 or more)	P
CCOc1cccc2c1C1=Nc3c4cccc(OCC)c4c4[n]3[Zn][n]3c(c5cccc(OCC)c5c3=NC2=N1)=NC1=NC(=N4)c2ccc(OS(=O)(=O)c3ccc(CCCN)cc3)cc21 [Fluorescent dye 37]				P (P (Pass): 0.8 or more)	P
O=C(O)CCCN1C(=O)C2=C(c3ccccc3)NC(=O)C2=C1c1ccccc1 [Fluorescent dye 38]				P (P (Pass): 0.8 or more)	P
CN(C)CCCNC(=O)c1ccc(C(=O)O)c(-c2c3ccc(=O)cc-3oc3cc(O)ccc23)c1 [Fluorescent dye 39]				P (P (Pass): 0.8 or more)	P
CCN(CC)c1ccc2c(-c3ccccc3C(=O)NCCCN(C)C)c3ccc(=[N+](CC)CC)cc-3oc2c1.[Cl-] [Fluorescent dye 40]				P (P (Pass): 0.8 or more)	P
CC1=CC(C)=[N+]2C1Cc1ccc(CCC(=O)NCCCN(C)C)n1[B-]2(F)F (centres unmarked) [Fluorescent dye 41]				P (P (Pass): 0.8 or more)	P
CCOc1cccc2c1C1=Nc3c4cccc(OCC)c4c4[n]3[Al-2]35([O][PH](=O)CCCO)[n]6c(c7cccc(OCC)c7c6=NC2=[N+]13)=NC1=[N+]5C(=N4)c2cccc(OCC)c21 (centres unmarked) [Fluorescent dye 54]				P (P (Pass): 0.8 or more)	P
CCOc1cccc2c1C1=Nc3c4cccc(OCC)c4c4[n]3[Al-2]35([O]S(=O)(=O)c6ccc(O)cc6)[n]6c(c7cccc(OCC)c7c6=NC2=[N+]13)=NC1=[N+]5C(=N4)c2cccc(OCC)c21 [Fluorescent dye 55]				P (P (Pass): 0.8 or more)	P
O=C1NC(c2ccccc2)=C2C(=O)N(CCCP(=O)(O)O)C(c3ccccc3)=C12 [Fluorescent dye 60]				P (P (Pass): 0.8 or more)	P
CN1/C(=C/C=C/C=C/C2=[N+](CCCCCC(=O)NCCCO)c3ccccc3C2(C)C)C(C)(C)c2ccccc21 [Fluorescent dye 62]				P (P (Pass): 0.8 or more)	P
CC1=CC(C)=[N+]2C1=Cc1ccc(CCC(=O)NCCCO)n1[B-]2(F)F [Fluorescent dye 63]				P (P (Pass): 0.8 or more)	P

— patent publication US12692396B2, “Fluorescent labeling agent and fluorescent dye” (artience Co., Ltd., priority 2020, dated 2026)
